From DBAASP come the findings set out here.

Converted amounts (≈) assume the structure as drawn. Where only a bound is given, the exact number is not on record here.

Test systems include Bacillus cereus; Escherichia coli; Staphylococcus aureus.
Assay in all cases: ≥ marks a high value that may be exact or a test limit, other limits are often not marked, values filed in µg/mL are converted to µM

As to `CC(C)C[C@H](NC(=O)[C@H](CCCCN)NC(=O)[C@H](Cc1ccccc1)NC(=O)[C@@H](NC(=O)[C@H](CCCCN)NC(=O)CNC(=O)[C@H](CC(C)C)NC(=O)[C@@H](N)Cc1ccccc1)C(C)C)C(=O)N[C@@H](C)C(=O)N[C@@H](CO)C(=O)N[C@@H](CCCCN)C(=O)N[C@H](C(=O)N[C@@H](Cc1ccccc1)C(=O)N1CCC[C@H]1C(=O)N[C@@H](C)C(=O)N[C@H](C(=O)N[C@@H](Cc1ccccc1)C(=O)NCC(=O)N[C@@H](CCCCN)C(=O)N[C@H](C(=O)O)C(C)C)C(C)C)C(C)C` [FLGKVFKLASKVFPAVFGKV], the MIC with Bacillus cereus was 7.33 µM (≈ 16 µg/mL); with Escherichia coli, 7.33 µM (≈ 16 µg/mL); against Staphylococcus aureus, 14.7 µM (≈ 32 µg/mL).
Take `CC(C)C[C@H](NC(=O)[C@@H](N)Cc1ccccc1)C(=O)NCC(=O)N[C@@H](CCCCN)C(=O)N[C@H](C(=O)N[C@H](C(=O)N[C@@H](CCCCN)C(=O)NCC(=O)N[C@@H](C)C(=O)N[C@@H](CO)C(=O)N[C@@H](CCCCN)C(=O)N[C@H](C(=O)N[C@@H](Cc1ccccc1)C(=O)N1CCC[C@H]1C(=O)N[C@@H](C)C(=O)N[C@H](C(=O)N[C@@H](Cc1ccccc1)C(=O)NCC(=O)N[C@@H](CCCCN)C(=O)N[C@H](C(=O)O)C(C)C)C(C)C)C(C)C)C(C)C)C(C)C` [FLGKVVKGASKVFPAVFGKV]: the minimal inhibitory concentration (MIC) in the assay with Bacillus cereus is not below 123 µM; against Escherichia coli, more than 123 µM; in the assay on Staphylococcus aureus it was more than 123 µM.
`CC(C)C[C@H](NC(=O)[C@H](CCCCN)NC(=O)[C@H](Cc1ccccc1)NC(=O)[C@@H](NC(=O)[C@H](CO)NC(=O)CNC(=O)[C@H](CC(C)C)NC(=O)[C@@H](N)Cc1ccccc1)C(C)C)C(=O)N[C@@H](C)C(=O)N[C@@H](CO)C(=O)N[C@@H](CCCCN)C(=O)N[C@H](C(=O)N[C@@H](Cc1ccccc1)C(=O)N1CCC[C@H]1C(=O)N[C@@H](C)C(=O)N[C@H](C(=O)N[C@@H](Cc1ccccc1)C(=O)NCC(=O)N[C@@H](CCCCN)C(=O)N[C@H](C(=O)O)C(C)C)C(C)C)C(C)C` [FLGSVFKLASKVFPAVFGKV]: the minimal inhibitory concentration (MIC) stood at 14.9 µM (≈ 32 µg/mL) in the assay with Bacillus cereus, 29.9 µM (≈ 64 µg/mL) against Escherichia coli and 29.9 µM (≈ 64 µg/mL) with Staphylococcus aureus.
For `CC(C)C[C@H](NC(=O)[C@@H](N)Cc1ccccc1)C(=O)NCC(=O)N[C@H](C(=O)N[C@H](C(=O)N[C@@H](Cc1ccccc1)C(=O)N[C@@H](CCCCN)C(=O)N[C@@H](CCCCN)C(=O)N[C@@H](C)C(=O)N[C@@H](CO)C(=O)N[C@@H](CCCCN)C(=O)N[C@H](C(=O)N[C@@H](Cc1ccccc1)C(=O)NCC(=O)N[C@@H](C)C(=O)N[C@H](C(=O)N[C@@H](Cc1ccccc1)C(=O)NCC(=O)N[C@@H](CCCCN)C(=O)N[C@H](C(=O)O)C(C)C)C(C)C)C(C)C)C(C)C)C(C)C` [FLGVVFKKASKVFGAVFGKV], the MIC against Bacillus cereus is not below 60.1 µM; against Escherichia coli, 30.1 µM (≈ 64 µg/mL); against Staphylococcus aureus, more than 120 µM.
The matching figures for `CC(C)C[C@H](NC(=O)[C@H](CCCCN)NC(=O)[C@H](Cc1ccccc1)NC(=O)[C@@H](NC(=O)[C@@H](NC(=O)CNC(=O)[C@H](CC(C)C)NC(=O)[C@@H](N)Cc1ccccc1)C(C)C)C(C)C)C(=O)N[C@@H](C)C(=O)N[C@@H](CO)C(=O)N[C@@H](CCCCN)C(=O)N[C@H](C(=O)N[C@@H](Cc1ccccc1)C(=O)NCC(=O)N[C@@H](CCCCN)C(=O)N[C@H](C(=O)N[C@@H](Cc1ccccc1)C(=O)NCC(=O)N[C@@H](CCCCN)C(=O)N[C@H](C(=O)O)C(C)C)C(C)C)C(C)C` [FLGVVFKLASKVFGKVFGKV]: 3.69 µM (≈ 8 µg/mL), 29.5 µM (≈ 64 µg/mL) and 3.69 µM (≈ 8 µg/mL).
For `CC(C)C[C@H](NC(=O)[C@@H](N)Cc1ccccc1)C(=O)NCC(=O)N[C@H](C(=O)N[C@H](C(=O)N[C@@H](Cc1ccccc1)C(=O)N[C@@H](CCCCN)C(=O)N[C@@H](CO)C(=O)N[C@@H](C)C(=O)N[C@@H](CO)C(=O)N[C@@H](CCCCN)C(=O)N[C@H](C(=O)N[C@@H](Cc1ccccc1)C(=O)N1CCC[C@H]1C(=O)N[C@@H](C)C(=O)N[C@H](C(=O)N[C@@H](Cc1ccccc1)C(=O)NCC(=O)N[C@@H](CCCCN)C(=O)N[C@H](C(=O)O)C(C)C)C(C)C)C(C)C)C(C)C)C(C)C` [FLGVVFKSASKVFPAVFGKV], in that order: not below 120 µM, more than 120 µM and more than 120 µM.

The MIC is the lowest concentration found to suppress growth. Low readings indicate a more susceptible organism, high ones a less susceptible organism.
